US9714244B2, “Substituted pyrido[4,3-d]pyrimidines as Wee-1 inhibitors” (ALMAC DISCOVERY LIMITED, priority 2013, dated 2017)

Columns and labels:
[1] = target: RPS6KB1 (p70S6K) (Homo sapiens (Human), UniProt P23443); assay: SelectScreen Kinase Profiling: RPS6KB1; format: biochemical; details: 300-350 nM
From the text: (§1) Table 2 below highlights the selectivity of a representative compound of the invention against a panel of 50 kinases (assessed using the Invitrogen SelectScreen® Kinase Profiling Service).

[2] = target: Wee-1 kinase (Homo sapiens (Human), UniProt P30291); assay: Measurement of Wee-1 kinase activity (ADP-Glo); format: biochemical; details: read-out: Wee-1 IC50 activity
[3] = target: KIT (Homo sapiens (Human), UniProt P10721); assay: SelectScreen Kinase Profiling: KIT; format: biochemical; details: 300-350 nM
From the text: as §1

[4] = target: ACVR1B (ALK4) (Homo sapiens (Human), UniProt P36896); assay: SelectScreen Kinase Profiling: ACVR1B; format: biochemical; details: 300-350 nM
From the text: as §1

[5] = target: MAPKAPK2 (Homo sapiens (Human), UniProt P49137); assay: SelectScreen Kinase Profiling: MAPKAPK2; format: biochemical; details: 300-350 nM
From the text: as §1

[6] = target: MAPK1 (ERK2) (Homo sapiens (Human), UniProt P28482); assay: SelectScreen Kinase Profiling: MAPK1; format: biochemical; details: 300-350 nM
From the text: as §1

[7] = target: TEK (Tie2) (Homo sapiens (Human), UniProt Q02763); assay: SelectScreen Kinase Profiling: TEK; format: biochemical; details: 300-350 nM
From the text: as §1

[8] = test system: phospho-cdc2 (Tyr15) in HT-29 cells; assay: Effect on phosphorylation of cdc2 at Tyr15 in HT-29 cells (PathScan ELISA); format: cell-based; details: Homo sapiens, HT-29, 8 h; HT29 cells, eight hours incubation; read-out: HT29 pCDC2 activity
[9] = target: INSR (Homo sapiens (Human), UniProt P06213); assay: SelectScreen Kinase Profiling: INSR; format: biochemical; details: 300-350 nM
From the text: as §1

[10] = target: EPHA2 (Homo sapiens (Human), UniProt P29317); assay: SelectScreen Kinase Profiling: EPHA2; format: biochemical; details: 300-350 nM
From the text: as §1

[11] = target: PIM1 (Homo sapiens (Human), UniProt P11309); assay: SelectScreen Kinase Profiling: PIM1; format: biochemical; details: 300-350 nM
From the text: as §1

Sequence of MAPKAPK2 (P49137 whole entry): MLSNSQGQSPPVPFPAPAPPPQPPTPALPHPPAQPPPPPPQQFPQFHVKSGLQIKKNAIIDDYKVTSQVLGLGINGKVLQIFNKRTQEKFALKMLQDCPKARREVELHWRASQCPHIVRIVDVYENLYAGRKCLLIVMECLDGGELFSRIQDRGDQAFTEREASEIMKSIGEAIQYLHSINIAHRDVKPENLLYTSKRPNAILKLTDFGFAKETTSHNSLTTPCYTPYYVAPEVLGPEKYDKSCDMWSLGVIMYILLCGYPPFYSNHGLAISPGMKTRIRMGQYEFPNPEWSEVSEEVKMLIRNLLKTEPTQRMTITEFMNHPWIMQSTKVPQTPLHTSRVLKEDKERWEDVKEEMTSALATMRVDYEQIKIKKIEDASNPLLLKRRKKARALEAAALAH
Sequence of PIM1 (P11309 whole entry): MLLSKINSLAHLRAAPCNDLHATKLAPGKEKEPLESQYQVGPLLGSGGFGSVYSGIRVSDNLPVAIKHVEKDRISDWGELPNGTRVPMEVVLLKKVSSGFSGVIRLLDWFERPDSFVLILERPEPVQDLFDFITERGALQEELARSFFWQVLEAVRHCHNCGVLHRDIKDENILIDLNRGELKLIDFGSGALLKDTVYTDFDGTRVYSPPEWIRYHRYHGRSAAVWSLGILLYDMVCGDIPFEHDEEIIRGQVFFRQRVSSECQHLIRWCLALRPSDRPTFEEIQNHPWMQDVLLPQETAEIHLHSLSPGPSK
Sequence of RPS6KB1 (p70S6K) (P23443 whole entry): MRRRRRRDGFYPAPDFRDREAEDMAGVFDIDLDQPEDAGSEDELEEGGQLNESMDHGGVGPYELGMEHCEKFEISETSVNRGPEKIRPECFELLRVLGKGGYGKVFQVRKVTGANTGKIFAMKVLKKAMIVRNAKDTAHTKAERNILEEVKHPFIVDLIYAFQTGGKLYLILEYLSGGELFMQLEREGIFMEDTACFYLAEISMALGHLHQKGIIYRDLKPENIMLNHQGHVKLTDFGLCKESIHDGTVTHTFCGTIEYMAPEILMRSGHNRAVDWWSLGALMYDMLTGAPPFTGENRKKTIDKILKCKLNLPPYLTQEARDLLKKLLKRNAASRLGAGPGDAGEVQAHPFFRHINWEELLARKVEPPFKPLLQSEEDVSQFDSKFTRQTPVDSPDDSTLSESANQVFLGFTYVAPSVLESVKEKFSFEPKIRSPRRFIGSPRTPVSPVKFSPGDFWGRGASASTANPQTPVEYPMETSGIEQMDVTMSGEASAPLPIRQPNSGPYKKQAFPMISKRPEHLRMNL
Sequence of Wee-1 kinase (P30291 whole entry): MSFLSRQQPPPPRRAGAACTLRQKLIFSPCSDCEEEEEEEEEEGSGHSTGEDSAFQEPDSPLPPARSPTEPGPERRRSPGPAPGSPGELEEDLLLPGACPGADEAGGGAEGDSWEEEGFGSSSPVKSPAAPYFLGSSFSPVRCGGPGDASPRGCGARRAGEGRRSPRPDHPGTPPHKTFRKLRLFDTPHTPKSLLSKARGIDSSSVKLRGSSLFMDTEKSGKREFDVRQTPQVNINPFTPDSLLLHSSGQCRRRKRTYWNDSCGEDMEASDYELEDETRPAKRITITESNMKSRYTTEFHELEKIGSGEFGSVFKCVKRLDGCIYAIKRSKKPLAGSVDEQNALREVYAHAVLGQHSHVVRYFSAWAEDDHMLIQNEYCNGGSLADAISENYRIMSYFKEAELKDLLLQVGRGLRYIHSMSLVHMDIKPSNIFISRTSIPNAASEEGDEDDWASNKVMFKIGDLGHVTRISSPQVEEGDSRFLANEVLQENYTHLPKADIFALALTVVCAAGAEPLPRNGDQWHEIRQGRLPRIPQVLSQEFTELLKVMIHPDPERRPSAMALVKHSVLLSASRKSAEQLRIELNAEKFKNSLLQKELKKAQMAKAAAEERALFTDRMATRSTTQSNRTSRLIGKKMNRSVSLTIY
Sequence of EPHA2 (P29317 24-976): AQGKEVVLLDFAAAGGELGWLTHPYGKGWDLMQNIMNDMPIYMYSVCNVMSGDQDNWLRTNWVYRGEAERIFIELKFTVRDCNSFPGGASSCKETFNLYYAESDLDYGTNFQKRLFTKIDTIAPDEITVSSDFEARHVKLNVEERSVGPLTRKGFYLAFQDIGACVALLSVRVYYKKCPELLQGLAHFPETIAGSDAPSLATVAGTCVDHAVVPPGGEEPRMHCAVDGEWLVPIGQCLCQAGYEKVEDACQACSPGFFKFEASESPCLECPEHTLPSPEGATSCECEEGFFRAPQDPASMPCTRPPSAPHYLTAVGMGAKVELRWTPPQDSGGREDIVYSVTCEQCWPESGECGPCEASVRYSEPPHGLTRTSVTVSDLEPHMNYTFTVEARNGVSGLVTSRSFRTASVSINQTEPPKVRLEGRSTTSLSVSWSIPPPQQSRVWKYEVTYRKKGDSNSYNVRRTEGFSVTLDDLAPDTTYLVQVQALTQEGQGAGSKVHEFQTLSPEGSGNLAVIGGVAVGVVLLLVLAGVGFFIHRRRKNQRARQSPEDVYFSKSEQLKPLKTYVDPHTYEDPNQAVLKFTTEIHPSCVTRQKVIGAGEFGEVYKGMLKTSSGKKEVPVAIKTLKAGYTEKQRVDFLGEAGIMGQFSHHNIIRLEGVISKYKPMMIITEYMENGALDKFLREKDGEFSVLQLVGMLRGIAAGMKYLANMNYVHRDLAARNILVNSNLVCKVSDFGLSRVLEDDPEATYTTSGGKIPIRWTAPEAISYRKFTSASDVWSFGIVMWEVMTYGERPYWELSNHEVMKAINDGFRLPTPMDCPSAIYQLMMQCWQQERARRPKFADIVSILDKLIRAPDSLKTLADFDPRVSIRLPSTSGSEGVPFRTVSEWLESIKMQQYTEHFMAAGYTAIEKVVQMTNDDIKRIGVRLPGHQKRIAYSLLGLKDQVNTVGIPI
Sequence of INSR (P06213 28-1382): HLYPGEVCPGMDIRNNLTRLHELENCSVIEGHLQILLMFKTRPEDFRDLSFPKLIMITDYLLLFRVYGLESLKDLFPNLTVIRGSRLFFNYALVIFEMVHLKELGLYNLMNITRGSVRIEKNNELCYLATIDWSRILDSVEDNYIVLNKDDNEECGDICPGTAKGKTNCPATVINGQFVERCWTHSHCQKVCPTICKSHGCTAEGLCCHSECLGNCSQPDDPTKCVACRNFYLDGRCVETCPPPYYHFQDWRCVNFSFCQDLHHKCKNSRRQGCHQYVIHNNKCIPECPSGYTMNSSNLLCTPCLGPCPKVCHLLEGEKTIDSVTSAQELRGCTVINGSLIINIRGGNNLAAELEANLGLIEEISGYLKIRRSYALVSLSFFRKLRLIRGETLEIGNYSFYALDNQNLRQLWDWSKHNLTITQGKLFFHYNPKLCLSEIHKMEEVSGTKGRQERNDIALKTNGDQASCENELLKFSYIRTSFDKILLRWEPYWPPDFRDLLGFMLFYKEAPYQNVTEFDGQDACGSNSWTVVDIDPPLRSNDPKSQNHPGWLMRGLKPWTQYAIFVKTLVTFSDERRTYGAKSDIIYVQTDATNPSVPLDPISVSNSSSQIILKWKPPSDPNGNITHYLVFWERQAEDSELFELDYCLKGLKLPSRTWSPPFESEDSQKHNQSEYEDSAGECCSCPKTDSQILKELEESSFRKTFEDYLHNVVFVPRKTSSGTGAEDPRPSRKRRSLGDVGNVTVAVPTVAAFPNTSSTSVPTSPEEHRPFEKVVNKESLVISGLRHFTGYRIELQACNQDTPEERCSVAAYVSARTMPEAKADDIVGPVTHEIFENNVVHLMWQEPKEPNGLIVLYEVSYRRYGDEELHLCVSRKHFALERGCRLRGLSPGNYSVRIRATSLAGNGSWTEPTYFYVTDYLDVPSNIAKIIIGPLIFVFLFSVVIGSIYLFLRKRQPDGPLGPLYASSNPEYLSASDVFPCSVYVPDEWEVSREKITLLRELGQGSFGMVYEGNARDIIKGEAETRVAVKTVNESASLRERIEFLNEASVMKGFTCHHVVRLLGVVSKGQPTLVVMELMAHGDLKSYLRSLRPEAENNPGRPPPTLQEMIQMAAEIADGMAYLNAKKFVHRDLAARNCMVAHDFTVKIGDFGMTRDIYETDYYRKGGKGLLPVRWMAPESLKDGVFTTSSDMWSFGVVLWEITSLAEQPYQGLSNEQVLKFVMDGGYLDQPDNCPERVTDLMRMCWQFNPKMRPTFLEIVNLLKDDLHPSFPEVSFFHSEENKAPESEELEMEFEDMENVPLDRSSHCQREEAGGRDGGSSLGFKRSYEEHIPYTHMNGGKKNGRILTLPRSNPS
Sequence of ACVR1B (ALK4) (P36896 24-505): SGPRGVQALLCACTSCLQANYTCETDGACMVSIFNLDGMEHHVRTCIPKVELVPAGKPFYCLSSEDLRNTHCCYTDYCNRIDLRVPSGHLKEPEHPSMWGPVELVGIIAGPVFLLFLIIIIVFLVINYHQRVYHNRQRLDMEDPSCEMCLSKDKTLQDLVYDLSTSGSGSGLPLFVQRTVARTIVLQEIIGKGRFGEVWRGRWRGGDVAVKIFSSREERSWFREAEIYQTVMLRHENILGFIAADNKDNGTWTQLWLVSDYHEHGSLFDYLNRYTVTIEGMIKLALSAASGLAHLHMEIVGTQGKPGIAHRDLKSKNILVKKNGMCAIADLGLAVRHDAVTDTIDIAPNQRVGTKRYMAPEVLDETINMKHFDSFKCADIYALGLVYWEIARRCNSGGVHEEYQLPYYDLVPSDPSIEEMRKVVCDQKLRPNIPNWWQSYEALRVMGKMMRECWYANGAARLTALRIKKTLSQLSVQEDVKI
Sequence of MAPK1 (ERK2) (P28482 whole entry): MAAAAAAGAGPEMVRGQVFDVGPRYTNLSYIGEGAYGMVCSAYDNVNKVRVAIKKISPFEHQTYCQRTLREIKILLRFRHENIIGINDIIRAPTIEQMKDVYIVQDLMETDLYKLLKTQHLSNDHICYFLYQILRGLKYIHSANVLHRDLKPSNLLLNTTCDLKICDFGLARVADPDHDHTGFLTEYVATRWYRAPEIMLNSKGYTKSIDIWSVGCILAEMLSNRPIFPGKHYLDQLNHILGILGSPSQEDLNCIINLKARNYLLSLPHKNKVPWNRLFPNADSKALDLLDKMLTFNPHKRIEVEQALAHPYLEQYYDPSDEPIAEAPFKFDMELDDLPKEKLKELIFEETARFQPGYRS

**Q.** For O=c1c2cnc(Nc3ccc(N4CCNCC4)cc3)nc2ccn1-c1c(Cl)cccc1Cl [Example 1, 6-(2,6-Dichlorophenyl)-2-((4-(piperazin-1-yl)phenyl)amino)pyrido[4,3-d]pyrimidin-5(6H)-one], which “Inhibition RPS6KB1 (p70S6K)” value [1] is on record?
**A.** Its value is “− (Inhibition <75% @ 300-350 nM)”.

**Q.** What about the IC50 [2] of the same compound?
**A.** The IC50 was 10 to 200 nM.

**Q.** And the “Inhibition KIT” value [3]?
**A.** The value was “− (Inhibition <75% @ 300-350 nM)”.

**Q.** And the “Inhibition ACVR1B (ALK4)” value [4]?
**A.** Its value is “− (Inhibition <75% @ 300-350 nM)”.

**Q.** And the “Inhibition MAPKAPK2” value [5]?
**A.** Its value is “− (Inhibition <75% @ 300-350 nM)”.

**Q.** What about the “Inhibition MAPK1 (ERK2)” value [6] of the same compound?
**A.** The value was “− (Inhibition <75% @ 300-350 nM)”.

**Q.** What about the “Inhibition TEK (Tie2)” value [7] of the same compound?
**A.** The value was “− (Inhibition <75% @ 300-350 nM)”.

**Q.** And the IC50 [8]?
**A.** Its IC50 is ≥ 1000 nM.

**Q.** What about the “Inhibition INSR” value [9] of the same compound?
**A.** Its value is “− (Inhibition <75% @ 300-350 nM)”.

**Q.** And the “Inhibition EPHA2” value [10]?
**A.** Its value is “− (Inhibition <75% @ 300-350 nM)”.

**Q.** And the “Inhibition PIM1” value [11]?
**A.** Its value is “− (Inhibition <75% @ 300-350 nM)”.
